Here are results for one compound from publication PMC7206119, “RIP1 inhibition blocks inflammatory diseases but not tumor growth or metastases” (Cell Death and Differentiation, 2019).

Holding throughout (assay): biochemical
What all share (design): DiscoverX kinase panel, active-site competition binding (KINOMEscan type), percent of control at one concentration
What all share (conditions): competition binding, percent of control

Test [1] addresses SRC (Homo sapiens, UniProt P12931).
The target of test [2] is KIT(V559D,T670I) (Homo sapiens, UniProt P10721, T670I/V559D).
Test [3] addresses T1, MEK4 (Homo sapiens, UniProt P45985).
T1 construct: gene MAP2K4

The target of test [4] is GAK (Homo sapiens, UniProt O14976).
Test [5] has as its target CAMKK2 (Homo sapiens, UniProt Q96RR4).
The target in test [6] is CAMK1 (Homo sapiens, UniProt Q14012).
Test [7] concerns the target EGFR(L747-E749del, A750P) (Homo sapiens, UniProt P00533, A750P/DEL747-749).
Test [8] concerns the target NEK5 (Homo sapiens, UniProt Q6P3R8).
The target of test [9] is PLK4 (Homo sapiens, UniProt O00444).
The target in test [10] is KIT(V559D,V654A) (Homo sapiens, UniProt P10721, V559D/V654A).
Test [11] deals with MAP3K15 (Homo sapiens, UniProt Q6ZN16).
Test [12] has as its target T2, PIK4CB (Homo sapiens, UniProt Q9UBF8).
T2 construct: gene PI4KB

The target of test [13] is NEK4 (Homo sapiens, UniProt P51957).
Test [14] addresses BRAF(V600E) (Homo sapiens, UniProt P15056, V600E).
The target in test [15] is T3, LOK (Homo sapiens, UniProt O94804).
T3 construct: gene STK10

Test [16] concerns the target T4, OSR1 (Homo sapiens, UniProt O95747).
T4 construct: gene OXSR1

The target in test [17] is CLK3 (Homo sapiens, UniProt P49761).
In test [18] the target is ERBB2 (Homo sapiens, UniProt P04626).
Test [19] concerns the target MAP4K3 (Homo sapiens, UniProt Q8IVH8).
Test [20] deals with CSNK1D (Homo sapiens, UniProt P48730).
Test [21] deals with T5, ABL1(F317L)-phosphorylated (Homo sapiens, UniProt P00519, F317L).
T5 construct: phosphorylated

CSNK1D, sequence (P48730 whole entry): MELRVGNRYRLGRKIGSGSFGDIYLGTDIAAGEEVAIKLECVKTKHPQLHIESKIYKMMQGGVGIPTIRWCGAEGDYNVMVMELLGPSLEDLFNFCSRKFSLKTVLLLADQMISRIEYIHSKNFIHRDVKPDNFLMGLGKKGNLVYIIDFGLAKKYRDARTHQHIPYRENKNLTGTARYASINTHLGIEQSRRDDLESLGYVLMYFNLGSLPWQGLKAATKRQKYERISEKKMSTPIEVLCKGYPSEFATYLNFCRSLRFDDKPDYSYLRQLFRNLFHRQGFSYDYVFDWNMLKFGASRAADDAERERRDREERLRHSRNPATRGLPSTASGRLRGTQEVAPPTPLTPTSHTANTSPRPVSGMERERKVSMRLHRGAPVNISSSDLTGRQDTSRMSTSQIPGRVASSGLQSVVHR
MAP3K15, sequence (Q6ZN16 whole entry): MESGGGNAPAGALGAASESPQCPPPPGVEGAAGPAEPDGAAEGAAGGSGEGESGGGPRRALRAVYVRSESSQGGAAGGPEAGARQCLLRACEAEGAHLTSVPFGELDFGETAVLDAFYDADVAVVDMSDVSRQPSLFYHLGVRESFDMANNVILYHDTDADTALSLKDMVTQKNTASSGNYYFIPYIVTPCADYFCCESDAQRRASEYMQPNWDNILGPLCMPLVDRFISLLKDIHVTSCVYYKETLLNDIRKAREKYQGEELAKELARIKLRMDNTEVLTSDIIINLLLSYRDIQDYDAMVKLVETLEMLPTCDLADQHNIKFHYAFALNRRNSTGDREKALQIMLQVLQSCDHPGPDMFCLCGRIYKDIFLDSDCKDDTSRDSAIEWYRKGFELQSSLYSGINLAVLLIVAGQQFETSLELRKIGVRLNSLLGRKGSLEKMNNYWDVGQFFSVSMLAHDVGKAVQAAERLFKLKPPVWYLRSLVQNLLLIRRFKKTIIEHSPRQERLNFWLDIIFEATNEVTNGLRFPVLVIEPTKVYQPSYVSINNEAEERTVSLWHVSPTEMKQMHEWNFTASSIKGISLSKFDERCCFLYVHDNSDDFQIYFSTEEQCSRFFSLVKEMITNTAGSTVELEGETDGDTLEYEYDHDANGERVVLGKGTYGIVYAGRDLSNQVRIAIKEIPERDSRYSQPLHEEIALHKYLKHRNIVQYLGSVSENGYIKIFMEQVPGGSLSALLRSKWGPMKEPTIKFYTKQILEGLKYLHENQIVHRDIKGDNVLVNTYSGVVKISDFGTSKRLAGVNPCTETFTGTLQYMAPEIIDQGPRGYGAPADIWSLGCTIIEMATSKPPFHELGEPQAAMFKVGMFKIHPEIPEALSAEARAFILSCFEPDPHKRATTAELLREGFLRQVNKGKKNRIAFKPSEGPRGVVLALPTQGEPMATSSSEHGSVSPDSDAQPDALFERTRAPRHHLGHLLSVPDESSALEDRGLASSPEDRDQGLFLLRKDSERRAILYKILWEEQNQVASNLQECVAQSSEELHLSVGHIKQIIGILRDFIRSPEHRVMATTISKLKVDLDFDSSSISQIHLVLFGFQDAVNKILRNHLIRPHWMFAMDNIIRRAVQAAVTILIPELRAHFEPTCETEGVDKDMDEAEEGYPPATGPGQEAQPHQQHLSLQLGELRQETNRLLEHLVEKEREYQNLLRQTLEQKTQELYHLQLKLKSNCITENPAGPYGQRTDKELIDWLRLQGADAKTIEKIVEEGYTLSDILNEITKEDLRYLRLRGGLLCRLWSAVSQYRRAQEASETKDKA
NEK5, sequence (Q6P3R8 whole entry): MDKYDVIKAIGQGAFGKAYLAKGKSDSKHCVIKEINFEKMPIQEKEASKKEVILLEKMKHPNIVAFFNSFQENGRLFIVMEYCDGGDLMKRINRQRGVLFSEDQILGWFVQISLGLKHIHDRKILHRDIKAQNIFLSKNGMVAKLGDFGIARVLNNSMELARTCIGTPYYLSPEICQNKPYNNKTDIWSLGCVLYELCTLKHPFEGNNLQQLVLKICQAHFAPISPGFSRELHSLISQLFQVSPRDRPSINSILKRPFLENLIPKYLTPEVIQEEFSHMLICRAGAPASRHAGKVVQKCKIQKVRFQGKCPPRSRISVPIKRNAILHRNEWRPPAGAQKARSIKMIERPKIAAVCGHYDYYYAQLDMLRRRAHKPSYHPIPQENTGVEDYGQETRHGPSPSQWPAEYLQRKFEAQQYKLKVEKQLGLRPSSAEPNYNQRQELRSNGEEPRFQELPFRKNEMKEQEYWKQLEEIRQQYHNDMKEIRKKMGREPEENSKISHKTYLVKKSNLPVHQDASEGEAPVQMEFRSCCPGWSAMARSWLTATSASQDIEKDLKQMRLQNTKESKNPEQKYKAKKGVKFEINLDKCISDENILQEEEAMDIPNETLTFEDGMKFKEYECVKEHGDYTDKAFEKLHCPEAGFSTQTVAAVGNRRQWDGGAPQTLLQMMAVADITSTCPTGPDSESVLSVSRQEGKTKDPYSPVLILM
MAP4K3, sequence (Q8IVH8 whole entry): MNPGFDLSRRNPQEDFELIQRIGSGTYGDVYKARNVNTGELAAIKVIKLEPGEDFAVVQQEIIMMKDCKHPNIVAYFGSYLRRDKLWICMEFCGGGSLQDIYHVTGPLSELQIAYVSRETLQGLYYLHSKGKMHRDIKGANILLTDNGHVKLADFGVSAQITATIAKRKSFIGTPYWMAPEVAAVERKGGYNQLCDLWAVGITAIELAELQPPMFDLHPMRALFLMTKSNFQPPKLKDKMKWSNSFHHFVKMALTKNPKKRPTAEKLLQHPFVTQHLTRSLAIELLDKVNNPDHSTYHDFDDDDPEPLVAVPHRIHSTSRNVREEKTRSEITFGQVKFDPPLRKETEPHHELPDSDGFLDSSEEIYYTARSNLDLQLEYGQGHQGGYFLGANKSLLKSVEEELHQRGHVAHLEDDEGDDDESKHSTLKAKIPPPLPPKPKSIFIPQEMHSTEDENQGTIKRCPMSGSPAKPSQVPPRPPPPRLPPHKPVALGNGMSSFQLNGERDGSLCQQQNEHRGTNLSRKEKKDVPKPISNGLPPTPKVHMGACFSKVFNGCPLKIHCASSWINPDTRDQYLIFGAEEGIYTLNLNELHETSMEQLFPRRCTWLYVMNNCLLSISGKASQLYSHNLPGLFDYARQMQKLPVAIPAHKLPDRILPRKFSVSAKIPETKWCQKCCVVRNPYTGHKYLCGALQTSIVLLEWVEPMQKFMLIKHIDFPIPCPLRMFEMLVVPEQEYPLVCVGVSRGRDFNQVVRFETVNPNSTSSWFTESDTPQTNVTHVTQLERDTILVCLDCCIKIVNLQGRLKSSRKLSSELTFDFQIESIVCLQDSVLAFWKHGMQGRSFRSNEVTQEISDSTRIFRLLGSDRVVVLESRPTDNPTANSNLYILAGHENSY
EGFR(L747-E749del, A750P), sequence (P00533 with tags, fused parts or gaps DEL747-749/A750P): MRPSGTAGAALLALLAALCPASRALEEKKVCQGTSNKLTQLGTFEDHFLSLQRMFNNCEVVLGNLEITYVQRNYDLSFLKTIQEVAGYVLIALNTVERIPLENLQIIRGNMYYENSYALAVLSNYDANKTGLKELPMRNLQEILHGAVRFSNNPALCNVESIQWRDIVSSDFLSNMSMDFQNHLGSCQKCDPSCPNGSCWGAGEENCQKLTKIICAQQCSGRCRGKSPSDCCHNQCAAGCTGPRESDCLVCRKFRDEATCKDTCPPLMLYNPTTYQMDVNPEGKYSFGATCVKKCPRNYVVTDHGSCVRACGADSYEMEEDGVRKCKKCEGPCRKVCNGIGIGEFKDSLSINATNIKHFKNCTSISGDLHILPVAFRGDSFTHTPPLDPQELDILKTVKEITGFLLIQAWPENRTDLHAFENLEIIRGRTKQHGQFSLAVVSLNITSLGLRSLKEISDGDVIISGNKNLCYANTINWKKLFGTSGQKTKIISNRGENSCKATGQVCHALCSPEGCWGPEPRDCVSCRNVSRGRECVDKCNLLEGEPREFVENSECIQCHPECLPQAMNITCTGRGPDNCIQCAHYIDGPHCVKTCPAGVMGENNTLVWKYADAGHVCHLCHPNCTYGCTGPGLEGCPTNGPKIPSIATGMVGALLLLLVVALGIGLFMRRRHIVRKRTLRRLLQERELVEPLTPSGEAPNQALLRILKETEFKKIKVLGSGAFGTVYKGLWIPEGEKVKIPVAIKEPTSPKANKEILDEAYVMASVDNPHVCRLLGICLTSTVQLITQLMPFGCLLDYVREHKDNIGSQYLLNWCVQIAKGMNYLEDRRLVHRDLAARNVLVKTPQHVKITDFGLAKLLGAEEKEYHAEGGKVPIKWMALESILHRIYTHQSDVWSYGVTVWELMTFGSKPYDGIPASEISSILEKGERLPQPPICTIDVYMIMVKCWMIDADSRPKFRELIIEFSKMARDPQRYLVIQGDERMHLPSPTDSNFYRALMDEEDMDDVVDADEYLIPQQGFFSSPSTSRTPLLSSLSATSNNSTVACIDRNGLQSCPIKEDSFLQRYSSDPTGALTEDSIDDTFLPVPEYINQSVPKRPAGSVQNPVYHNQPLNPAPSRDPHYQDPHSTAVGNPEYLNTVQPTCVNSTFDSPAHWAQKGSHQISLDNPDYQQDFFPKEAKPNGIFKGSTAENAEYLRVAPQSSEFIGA
SRC, sequence (P12931 whole entry): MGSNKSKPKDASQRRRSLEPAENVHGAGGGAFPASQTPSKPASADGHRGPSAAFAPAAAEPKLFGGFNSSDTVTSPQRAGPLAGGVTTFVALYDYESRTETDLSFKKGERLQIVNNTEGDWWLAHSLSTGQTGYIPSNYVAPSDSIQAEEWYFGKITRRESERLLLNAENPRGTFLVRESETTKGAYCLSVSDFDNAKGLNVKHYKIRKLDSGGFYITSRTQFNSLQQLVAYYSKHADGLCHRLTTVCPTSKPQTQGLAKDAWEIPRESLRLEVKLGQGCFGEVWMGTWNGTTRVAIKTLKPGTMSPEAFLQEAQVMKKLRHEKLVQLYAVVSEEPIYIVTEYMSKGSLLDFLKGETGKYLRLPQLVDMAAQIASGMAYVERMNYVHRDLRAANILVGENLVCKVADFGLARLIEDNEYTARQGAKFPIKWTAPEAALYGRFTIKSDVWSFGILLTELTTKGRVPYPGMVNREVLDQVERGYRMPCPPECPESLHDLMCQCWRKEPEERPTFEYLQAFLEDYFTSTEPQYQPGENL

As to `COc1cc2c(cn1)N(C)C(=O)[C@@H](NC(=O)c1nc3n(n1)[C@H](c1ccccc1)CC3)CC2` [GNE684, (S)-N-((S)-7-methoxy-1-methyl-2-oxo-2,3,4,5-tetrahydro-1H-pyrido[3,4-b]azepin-3-yl)-5-phenyl-6,7-dihydro-5H-pyrrolo[1,2-b][1,2,4]triazole-2-carboxamide], the remaining binding at 10 µM is 72% in test [1]; 100% in test [2]; 88% in test [3]; 92% in test [4]; 100% in test [5]; 91% in [6]. For the same compound, the remaining binding at 10 µM stood at 85% in test [7]; 100% in [8]; 95% in test [9]; 100% in test [10]; 94% in test [11]; 98% in test [12]. Also, the remaining binding at 10 µM in [13] worked out at 100%; in test [14], 100%; in test [15], 82%; in [16], 93%; in [17], 97%; in [18] it was 76%. The remaining binding at 10 µM in test [19] came to 99%; in test [20], 100%; in test [21] it was 91%.
